Key:
[1] = tested on: Gaeumannomyces graminis var. tritici (Ggt); assay: In vitro Assay: mycelial growth of Ggt on minimal media agar plates containing test compound; type: cell-based; conditions: dark, 19-20° C., 4 to 5 days, diameter of mycelial growth; for inhibition at 0.1 ppm / inhibition at 1 ppm / inhibition at 10 ppm: Gaeumannomyces graminis; for inhibition at 0.1 ppm: read-out: In vitro (ppm) 0.1, Percent Inhibition; for inhibition at 1 ppm: read-out: In vitro (ppm) 1, Percent Inhibition; for inhibition at 10 ppm: read-out: In vitro (ppm) 10, Percent Inhibition
Procedure, shortened: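 Ggt mycelial diameter read after 4 to 5 days in darkness at 19-20° C, from three 4-mm plugs placed on Czapek Dox minimal agar containing test compound delivered in acetone. Inhibition expressed as percent versus untreated plates, plug size (4 mm) subtracted from both.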

Ggt = assay: In vivo Assay: control of Ggt on wheat grown in pots of Ggt-infested soil, root disease rating; design: species or system Gaeumannomyces graminis var. tritici; conditions: 0.5 mg active ingredient per pot, 'Bergen' or 'Anza' wheat in Ggt-infested soil, after four weeks, vs untreated control; for pest or weed control at 0.5 mg/pot: Gaeumannomyces graminis, 672 h, read-out: In vivo, percent disease control
Procedure: Compounds are tested for control of Ggt on ‘Bergen’ or ‘Anza’ varieties of wheat grown in 3-inch square pots containing soil infested with Ggt. The infestation is accomplished by mixing the soil with an inoculum prepared by growing Ggt on ¼ strength potato dextrose agar (4.875 g potato dextrose agar, 5.0 g Bacto agar, 500 mL distilled, deionized water) in plates and using plugs from the plates to infest sterile oats (400 cc whole oats, 350 mL deionized water, autoclaved). After a one-month incubation period at room temperature, the oats are dried and mixed with the soil at 4% v/v. Four wheat seeds are placed on top of the soil in each pot. The test compounds are prepared as an 1:9 acetone/water v/v solution containing 0.18% Tween® 20 to provide a treatment rate of 0.5 mg active ingredient per pot, treated with 3 mL test solution per pot. Five pots are used for each treatment level and the controls, which are untreated, inoculated and non-inoculated pots. After one hour drying time, the seeds are covered with more of the appropriate soil and a layer of vermiculite. The pots are placed in a growth chamber and watered each day. After four weeks, each pot is evaluated for evidence of disease by examination of the seminal roots of each plant under a dissecting microscope. A 0 to 5 rating scale having the following meanings is used:
0=no runner hyphae or lesions present
1=runner hyphae and a few small lesions present on <10% of root system
2=runner hyphae and small lesions present on 10-25% of root system
3=runner hyphae and lesions present on 25-50% of root system
4=runner hyphae and many, large, coalescing lesions on >50% of root system
5=root system and culm completely inundated with lesions and runner hyphae
From each set of five replicates a high and low score is eliminated and a replicate mean is calculated by the average of the remaining three scores. This mean score is then compared to the untreated control score and a percent disease control is calculated.

Compound | In vitro (ppm) 0.1, Percent Inhibition ([1]; 0.1 ppm in minimal media agar) [%] | In vitro (ppm) 1, Percent Inhibition ([1]; 1 ppm in minimal media agar) [%] | In vitro (ppm) 10, Percent Inhibition ([1]; 10 ppm in minimal media agar) [%] | In vivo, percent disease control (Ggt) [%] | inhibition at 0.1 ppm ([1]; 0.1 ppm in minimal media agar) [%] | inhibition at 1 ppm ([1]; 1 ppm in minimal media agar) [%] | inhibition at 10 ppm ([1]; 10 ppm in minimal media agar) [%] | pest or weed control at 0.5 mg/pot (Ggt) [%]
CC(C)NC(=O)c1c(Cl)cccc1[Si](C)(C)C [Example 21, 2-Chloro-N-(1-methylethyl)-6-(trimethylsilyl) benzarnide] | 100 | 100 | 100 | 100 | – | – | – | –
CCN(C)C(=O)c1c(Cl)cccc1[Si](C)(C)C [Example 22, 2-Chloro-N-ethyl-N-methyl-6-(trimethylsilyl)benzamide] | – | – | – | – | 13 | < 0 | 46 | 91
C[Si](C)(C)c1cccc(Cl)c1C(=O)NCC(F)(F)F [Example 25, 2-Chloro-N-(2,2,2-trifluoro-ethyl)-6-(trimethylsilyl)-benzamide] | – | – | – | – | 19 | 15 | 89 | 56
CCCNC(=O)c1c(Cl)cccc1[Si](C)(C)C [Example 26, 2-Chloro-N-propyl-6-(trimethylsilyl)benzamide] | – | – | – | – | 95 | 95 | 97 | 99
C[Si](C)(C)c1cccc(Cl)c1C(=O)NCCO [Example 27, 2-Chloro-N-(2-hydroxyethyl)-6-(trimethylsilyl)benzamide] | – | – | – | – | 15 | 13 | 64 | 33
CCC(C)NC(=O)c1c(Cl)cccc1[Si](C)(C)C (centres unmarked) [Example 28, 2-Chloro-N-(1-methylpropyl)-6-(trimethylsilyl)benzamide] | – | – | – | – | 60 | 100 | 100 | 86
C[Si](C)(C)c1cccc(Cl)c1C(=O)NCCCl [Example 29, 2-Chloro-N-(2-chloroethyl)-6-(trimethylsilyl)benzamide] | – | – | – | – | 100 | 100 | 100 | 97
C[Si](C)(C)c1cccc(Cl)c1C(=O)NCc1ccco1 [Example 32, 2-Chloro-N-(2-furylmethyl)-6-(trimethylsilyl)benzamide] | – | – | – | – | 75 | 100 | 100 | 85
Cc1ccccc1NC(=O)c1c(Cl)cccc1[Si](C)(C)C [Example 33, 2-Chloro-N-(2-methylphenyl)-6-(trimethylsilyl)benzamide] | – | – | – | – | < 0 | 44 | 100 | 12
C[Si](C)(C)c1cccc(Cl)c1C(=O)NC1CC1 [Example 34, 2-Chloro-N-cyclopropyl-6-(trimethylsilyl)benzamide] | – | – | – | – | 97 | 100 | 100 | 100
CCN(Cc1ccccc1)C(=O)c1c(Cl)cccc1[Si](C)(C)C [Example 35, 2-Chloro-N-ethyl-N-(phenylmethyl)-6-(trimethylsilyl)benzamide] | – | – | – | – | 3 | 7 | 93 | 46
CCCN(CCC)C(=O)c1c(Cl)cccc1[Si](C)(C)C [Example 36, 2-Chloro-N,N-dipropyl-6-(trimethylsilyl)benzamide] | – | – | – | – | 26 | 69 | 100 | 88
CCN(CC)C(=O)c1c(Br)ccc(F)c1[Si](C)(C)C [Example 37, 6-Bromo-N,N-diethyl-3-fluoro-2-(trimethylsilyl)benzamide] | – | – | – | – | 17 | 63 | 87 | 83
CCN(CC)C(=O)c1c(Cl)ccc(F)c1[Si](C)(C)C [Example 38, 6-Chloro-N,N-diethyl-3-fluoro-2-(trimethylsilyl)benzamide] | – | – | – | – | 53 | 79 | 100 | 95
CCN(CC)C(=O)c1c(Cl)cccc1[Si](C)(C)C [Example 39, 2-Chloro-N,N-diethyl-6-(trimethylsilyl)benzamide] | – | – | – | – | 49 | 82 | 92 | 99
CCNC(=O)c1c(Cl)cccc1[Si](C)(C)C [Example 45, 2-Chloro-N-ethyl-6-(trimethylsilyl)benzamide] | – | – | – | – | 100 | 100 | 100 | 97
CCNC(=O)c1c(C)cccc1[Si](C)(C)C [Example 48, N-Ethyl-2-methyl-6-(trimethylsilyl)benzamide] | – | – | – | – | 74 | 100 | 100 | 97
CCNC(=O)c1ccccc1[Si](C)(C)C [Example 49, N-Ethyl-2-(trimethylsilyl)benzamide] | – | – | – | – | 100 | 100 | 100 | 97
CCN(CC)C(=S)c1c(C)cccc1[Si](C)(C)C [Example 51, N,N-Diethyl-2-methyl-6-(trimethylsilyl)thiobenzamide] | – | – | – | – | < 0 | 19 | 100 | 77
CCN(CC)C(=O)c1c(C(F)F)ccc(F)c1[Si](C)(C)C [Example 52, N,N-Diethyl-6-(difluoromethyl)-3-fluoro-2-(trimethylsilyl)benzamide] | – | – | – | – | 53 | 81 | 98 | 96
CCN(CC)C(=S)c1c(C)ccc(F)c1[Si](C)(C)C [Example 53, N,N-Diethyl-3-fluoro-6-methyl-2-(trimethylsilyl)thiobenzamide] | – | – | – | – | 9 | 19 | 95 | 65
CCN(CC)C(=O)c1c(CO)ccc(F)c1[Si](C)(C)C [Example 54, N,N-Diethyl-3-fluoro-6-(hydroxymethyl)-2-(trimethylsilyl)benzamide] | – | – | – | – | < 0 | 2 | 43 | 52
CCN(CC)C(=O)c1c(CF)ccc(F)c1[Si](C)(C)C [Example 55, N,N-Diethyl-3-fluoro-6-(fluoromethyl)-2-(trimethylsilyl)benzamide] | – | – | – | – | 49 | 81 | 100 | 100

Source: patent US6410558B1, “Fungicides for the control of take-all disease of plants” (Monsanto Technology LLC, priority 1991, dated 2002)
